According to PubChem BioAssay (NCI):
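96-well plates; 48 h exposure; 5 concentrations. Endpoints by linear interpolation between flanking doses. Not reached: highest tested concentration assigned. TGI: concentration producing complete growth inhibition.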

Experiments:
Test in all cases: growth of human tumour cells (NCI), 48 h
HOP-62 NSCLC = tested on: HOP-62 NSCLC
HOP-92 NSCLC = tested on: HOP-92 NSCLC
K-562 leukemia = tested on: K-562 leukemia
KM12 colon = tested on: KM12 colon
MOLT-4 leukemia = tested on: MOLT-4 leukemia
NCI-H460 lung = tested on: NCI-H460 lung
OVCAR-3 ovarian = tested on: OVCAR-3 ovarian
PC-3 prostate = tested on: PC-3 prostate
SK-MEL-28 melanoma = tested on: SK-MEL-28 melanoma
U251 CNS = tested on: U251 CNS

Compound	TGI (HOP-62 NSCLC) [µM]	TGI (HOP-92 NSCLC) [µM]	TGI (K-562 leukemia) [µM]	TGI (KM12 colon) [µM]	TGI (MOLT-4 leukemia) [µM]	TGI (NCI-H460 lung) [µM]	TGI (OVCAR-3 ovarian) [µM]	TGI (PC-3 prostate) [µM]	TGI (SK-MEL-28 melanoma) [µM]	TGI (U251 CNS) [µM]
O=[N+]([O-])c1ccc2c(c1)nc(Cc1ccccc1)n2C[C@@H]1CCCN2CCCCC12 (stereo not given in full)	> 100	> 100	49.1	55.4	47.6	> 100	> 100	> 100	38.3	> 100
CCNc1nc(N)c(C(=O)c2ccc(Cl)cc2)s1	> 100	> 100	> 100	> 100	> 100	> 100	65.4	> 100	> 100	> 100
CN(C(=O)C12C3C4(C(=O)O)C1(C(=O)N(C)C(C)(C)C)C1C2(C(=O)O)C3(C(=O)N(C)C(C)(C)C)C14C(=O)N(C)C(C)(C)C)C(C)(C)C (stereo not given)	> 100	> 100	> 100	> 100	> 100	> 100	> 100	> 100	> 100	> 100
COC(=O)c1c(OC(C)=O)ccc2c1c1c(OC(C)=O)c3ccccc3c(OC(C)=O)c1n2Cc1cc(OC)cc(OC)c1	> 100	5.35	> 100	8.13	> 100	> 100	> 100	> 100	> 100	> 100
O=C(O)Cc1ccc(Oc2nc3ccccc3nc2-c2cccs2)cc1	> 100	> 100	> 100	> 100	> 100	> 100	> 100	> 100	> 100	> 100
COc1c(-c2cc(C)c(Cl)c(=O)[nH]2)c(O)c(OC)c2occc12	> 100	> 100	> 100	> 100	> 100	> 100	> 100	> 100	> 100	> 100
COc1ccc(/C=N\N2CC(=O)N3C4C=CC(CC4)N3C2=O)cc1 (stereo not given)	> 100	> 100	> 100	> 100	> 100	> 100	> 100	> 100	> 100	> 100
C[C@]12CC[C@H]3[C@@H](CCC4=CC(=O)C=C[C@@]43O)[C@@H]1CCC2=O	> 100	> 100	> 100	> 100	> 100	> 100	> 100	> 100	> 100	> 100
O=C(CCc1cccc(O)c1)NCCc1cccc(O)c1	> 100	> 100	> 100	> 100	> 100	> 100	> 100	> 100	> 100	> 100
N/C(=N\N=C\c1ccc2c(c1)OCO2)NO	66.7	83.1	50.7	63.6	77.5	> 100	59.1	> 100	> 100	> 100
COc1c2occc2c(OC)c2c(=O)c(S(=O)(=O)NC(=O)Nc3ccc(Cl)cc3)coc12	> 10	> 10	> 10	> 10	> 10	> 10	> 10	> 10	> 10	> 10
Cc1cc(NS(=O)(=O)c2ccc(NC(=O)c3ccc4nc5ccccc5c(Nc5ccc(S(=O)(=O)N=C(N)N)cc5)c4c3)cc2)no1	35.8	67.6	27.7	32.2	40.8	34.5	34.6	39.3	35	30
CC1(C)C2CCC1(CS(=O)(=O)Nc1ccccc1)C(=O)C2 (stereo not given)	> 100	> 100	> 100	> 100	> 100	> 100	> 100	> 100	> 100	> 100
COc1cc2c(cc1OCCCC(=O)Nc1cc(C(=O)Nc3cc(C(=O)Nc4cc(C(=O)NCCCN(C)C)n(C)c4)n(C)c3)n(C)c1)N=C[C@@H]1CCCN1C2=O	9.83	3.38	> 100	> 52.2	> 100	17.6	3.62	6	4.66	3.01
Cc1cc2c(cc1-c1cc3c(cc1C)C(C(C)C)=C(O)C(=O)/C3=C\Nc1nc(-c3ccccc3)cs1)/C(=C/Nc1nc(-c3ccccc3)cs1)C(=O)C(O)=C2C(C)C	31.7	55.7	> 100	> 100	> 100	46	36	37.3	30.4	27.5
COc1cc(Oc2nc3ccccc3nc2C(=O)O)cc(OC)c1OC	> 100	> 100	> 100	> 100	> 100	> 100	> 100	> 100	> 100	> 100
